Entries after “also recorded” stand apart in the source; their conditions may differ. Read-outs that look alike come from different tables or passages of the source.
Tests used:
Liver = test system: Liver; parameters: method as in Literature; conditions: general toxic effects reported in the literature; ref Literature; cited from earlier work
neurons [1] = assay: Neuronal viability by morphological analysis and cell count in 4-organ system; conditions: 4-organ co-culture under flow, serum-free medium, 48 h drug treatment, day 7, vs control; DOX 5 μM, ATR 100 μM, VPA 2 mM, APAP 5 mM, AMAP 5 mM
Text: (§1) The four organ in vitro systems were assembled, on day 0, by placing the corresponding surfaces cell side up in a specific chamber of the housing (liver coverslip into chamber 1, cardiac coverslips and cantilevers into chambers 2 and 4, muscle coverslips into chamber 5, and neuron coverslips into chamber 3 and they were then topped with the serum-free co-culture medium (1X Neurobasal Medium, 1X B27, 1X AB/AM, 1X Glutamax (all from Life Technologies)) before locking the system. Right after assembling, the medium was completely replaced with 4 mL of the co-culture defined serum-free medium and the systems placed on a rocking platform inside an incubator. Platforms were checked every day by inspecting for expected cell morphology inside the system and by replacing medium (1.2 mL total volume) from the two reservoirs (30% of the total volume was replaced) with fresh medium. Drug incubation was initiated on day 5 of the co-culture by addition of the drug through the reservoir closer to the liver chamber (no. 1), allowing a first contact of the drug with the liver. 20 μL of the drug stock solution (or vehicle) to achieve a working concentration in 4 mL of total volume in the platform was utilized. On day 6, after 24 hours of drug incubation, 6 μL of the drug stock solution (or vehicle) was added to the fresh medium exchange volume (1.2 mL). After 48 hour of drug incubation, on day 7, systems were disassembled to test organ functionality that same day. For mono-culture conditions, surfaces remained in a 12-well plated with 1 mL of the co-culture defined serum-free medium maintained by daily replacement of half volume.
(§2) Seven days after the initiation of the co-culture, viability of each organ chamber, except for neurons, was evaluated through an MTT assay. […] Cell viability was measured at 570 nm in a Synergy HT plate reader and KC4 software. The results were expressed as the percentage of cell survival relative to the control (untreated or incubated with vehicle). The neuronal fraction viability was evaluated through morphological analysis throughout the co-culture experiment as the final coverslips were used for patch-clamp electrophysiology. Phase images (10X) where obtained every day of the co-culture. Neuronal viability was evaluated by cell morphology integrity and by cell count from day 1 to day 14.

HepG2 = test system: HepG2; parameters: method as in PMID 19107278; conditions: microfluidic system, double the concentration of APAP of this manuscript; cited from earlier work
Muscle = test system: Muscle; parameters: method as in Literature; conditions: general toxic effects reported in the literature; ref Literature; cited from earlier work
HepG2/C3A [2] = assay: Human Serum Albumin quantification (ELISA), liver fraction of 4-organ system; assay type: cell-based; conditions: 4-organ co-culture under flow, 48 h drug treatment, vs control; DOX 5 μM, ATR 100 μM, VPA 2 mM, APAP 5 mM, AMAP 5 mM
Procedure: Human Serum Albumin (HSA) production from the liver fraction was tracked throughout the co-culture, by measuring the HSA concentration in the supernatant of the culture as it represents liver protein anabolism. Samples were collected from the exchanged medium (1.2 mL) and stored at −20 °C until analysis. One freeze-thaw cycle occurred before samples were analyzed following manufacturers’ instructions provided in the ELISA Starter Accessory Kit (Bethyl Laboratories Inc, Cat #: E101). Samples were diluted as necessary in sample conjugate/diluent buffer to ensure readings measured within the range of the standard curve. The standard curve was prepared by serial dilutions of human reference serum in sample conjugate/diluent buffer (0–1600 ng/ml).
Final HSA concentrations were calculated in an excel file by first removing the average OD reading measured for blanks from average sample and standard OD readings. Concentrations of standard dilutions were plotted against average OD values measured in XY scatter plots. A standard curve was created by adding an order of 2 polynomial trendline to XY scatter plots and selecting the option to display the equation of the trendline, as well as the R^2 value, on each scatter plot (for ease of analysis HSA sigmoidal curves were split into 3 standard curves with HSA concentration ranges of 0–200 ng/ml, 200–800 ng/ml and […]). Quadratic equations were rearranged to make X (sample HSA concentration) the unknown variant. Y values (OD values) and a/b/c constants generated from trendline equations were inputted into rearranged quadratic equations per assay. HSA concentrations calculated were corrected accordingly for any differences in culture final volumes, sample dilutions during assays and cells number.

Human Skeletal Myofibers [3] = assay: MTT viability of skeletal muscle module in 4-organ system; conditions: 4-organ co-culture under flow, serum-free medium, 48 h drug treatment, day 7, vs control, DOX 5 μM, ATR 100 μM, VPA 2 mM, APAP 5 mM, AMAP 5 mM
Text: as §1, §2

[4] = test system: iPSc differentiated Cardiomyocytes; assay: MTT viability of cardiac module in 4-organ system; conditions: 4-organ co-culture under flow, serum-free medium, 48 h drug treatment, day 7, vs control, DOX 5 μM, ATR 100 μM, VPA 2 mM, APAP 5 mM, AMAP 5 mM
Text: as §1, §2

Neurons [5] = test system: Neurons; parameters: method as in Literature; conditions: general toxic effects reported in the literature; ref Literature; cited from earlier work
[6] = test system: iPSc differentiated Cardiomyocytes; assay: Cardiac beating frequency from video recordings; assay type: cell-based, human; conditions: 4-organ co-culture under flow, 48 h drug treatment, day 7, vs control; ATR 100 μM, VPA 2 mM, APAP 5 mM
Procedure: Seven or fourteen days after the co-culture, cardiac beating frequency was quantified from video recordings of three different areas of each of the cMEA surfaces, where the cardiomyocytes culture where located. Surfaces were located in a 37 °C bath platform containing co-culture medium with 50 mM HEPES on the stage of a Zeiss Axioscope 2FS upright microscope. Beats were counted in a period of 10 s, and the average number of 3 values was obtained. Drug effect was plotted as percentage of change compared to the control conditions.

HepG2/C3A [7] = assay: Urea quantification, liver fraction of 4-organ system; assay type: cell-based, human; conditions: 4-organ co-culture under flow, 48 h drug treatment, vs control; DOX 5 μM, ATR 100 μM, APAP 5 mM, AMAP 5 mM
Human Skeletal Myofibers [8] = assay: Myotube stimulated contraction (binary: contracting or not); assay type: cell-based; conditions: 4-organ co-culture under flow, 48 h drug treatment, day 7, broad-field electrical stimulation, DOX 5 μM, ATR 100 μM, VPA 2 mM, APAP 5 mM, AMAP 5 mM
Procedure: Myotube contraction in coverslips was evaluated after the co-culture was finalized. Individual surfaces were evaluated as previously reported in the group. Drugs effects were quantify in a binary code mode, cells were or were not contracting.

[9] = cited from earlier work; for Toxic plasma concentration: humans
Cardiomyocytes = test system: Cardiomyocytes; parameters: method as in Literature; conditions: general toxic effects reported in the literature; ref Literature; cited from earlier work
neurons [10] = assay: Neuron electrophysiology recording (patch clamp); assay type: cell-based, human; conditions: 4-organ co-culture under flow, 48 h drug treatment, day 7, vs control, DOX 5 μM, ATR 100 μM, APAP 5 mM
Text: Electrophysiological properties of neuron cultures where recorded on the last day of co-culture following a previously described method. Values of firing, repetitive firing, spontaneous firing, inward sodium current, outward potassium current, action potential peak voltage and the resting membrane potential, characterized the mature functionality of neurons in the in vitro system. Drug alterations of the neuronal electrophysiology are discussed in this manuscript.

Compound: CC(=O)Nc1ccc(O)cc1 [Acetaminophen]
- Drug effects on cell functionality, Liver, Literature (Liver): Compromised
- Drug effects on cell viability, Liver, Literature (Liver): Toxicity reported
- Neuronal cell viability, loss (cell loss by morphology/cell count) (neurons [1]): 50 ± 18% loss of cell viability
- Reduction in HepG2 viability (HepG2): 60%
- Drug effects on cell functionality, Muscle, Literature (Muscle): Myo-protective effect
- Drug effects on cell viability, Muscle, Literature (Muscle): Myo-protective effect
- HSA (albumin) production, increase (HepG2/C3A [2]): not affected
- Skeletal muscle viability, loss (Human Skeletal Myofibers [3]): Toxicity not observed
- Skeletal muscle viability, loss (Human Skeletal Myofibers [3]; listed as APAP): not significantly affected
- Cardiomyocyte viability, loss [4]: Toxicity not observed
- Cardiomyocyte viability, loss ([4]; listed as APAP): not significantly affected; also recorded: preserved (even improved)
- Drug effects on cell functionality, Neurons, Literature (Neurons [5]): Toxicity not reported
- Drug effects on cell viability, Neurons, Literature (Neurons [5]): Toxicity not reported
- Cardiomyocyte beating rate (beat frequency), increase [6]: 27 ± 9% increase in beating frequency
- Urea production, increase (HepG2/C3A [7]): 52 ± 13%
- Skeletal muscle loss of contractile ability (share of cultures in which contraction ceased) (Human Skeletal Myofibers [8]): 37% loss of contractile ability
- Skeletal muscle loss of contractile ability (share of cultures in which contraction ceased) (Human Skeletal Myofibers [8]; listed as APAP): 37%
- Therapeutic, and safe, plasma concentration ([9]; 500–1000 mg orally three times a day): low micromolar range
- Toxic plasma concentration ([9]; after 24 hours): less than 50 μM
- Toxic plasma concentration ([9]; first two hours after ingestion): around 2 mM
- Drug effects on cell functionality, Cardiomyocytes, Literature (Cardiomyocytes): Cardio-protective effect
- Drug effects on cell viability, Cardiomyocytes, Literature (Cardiomyocytes): Cardio-protective effect
- Neuronal ion currents and firing of stimulated action potentials (neurons [10]): no changes
- Neuronal repetitive and spontaneous firing ability (neurons [10]; AMAP 5 mM): loss and lost
- Neuronal electrophysiology, overall effect (neurons [10]; VPA 2 mM, AMAP 5 mM): Electrophysiology affected

— article PMC4738272 (Scientific Reports, 2016)
